Laboratory results taken from patent publication US10160726B2, “Quinolone derivatives as antibacterials” (priority 2014, dated 2018).
≈ marks a conversion by molar mass, not a printed value. Where a name gives a salt, the structure may show the parent alone. Read-outs that look alike come from different tables or passages of the source.

Assays:
[1] = system: S. aureus NB01006-AVR005 (gyrA S84L, grlA S80F, grlB E471K); experiment: microbe, parasite or virus in culture; assay type: cell-based; details: Staphylococcus aureus, 20 h, read-out: Antibacterial activity (MIC) NB01006-AVR005
[2] = molecular target: E. coli DNA gyrase (GyrA-B) (Escherichia coli, UniProt P0AES4); experiment: Supercoiling assay of E. coli gyrase; assay type: biochemical; details: supercoiling activity of E. coli gyrase (GyrA-B); read-out: GyrA-B IC50 (Enzyme)
E. coli DNA gyrase (GyrA-B), sequence (P0AES4 whole entry): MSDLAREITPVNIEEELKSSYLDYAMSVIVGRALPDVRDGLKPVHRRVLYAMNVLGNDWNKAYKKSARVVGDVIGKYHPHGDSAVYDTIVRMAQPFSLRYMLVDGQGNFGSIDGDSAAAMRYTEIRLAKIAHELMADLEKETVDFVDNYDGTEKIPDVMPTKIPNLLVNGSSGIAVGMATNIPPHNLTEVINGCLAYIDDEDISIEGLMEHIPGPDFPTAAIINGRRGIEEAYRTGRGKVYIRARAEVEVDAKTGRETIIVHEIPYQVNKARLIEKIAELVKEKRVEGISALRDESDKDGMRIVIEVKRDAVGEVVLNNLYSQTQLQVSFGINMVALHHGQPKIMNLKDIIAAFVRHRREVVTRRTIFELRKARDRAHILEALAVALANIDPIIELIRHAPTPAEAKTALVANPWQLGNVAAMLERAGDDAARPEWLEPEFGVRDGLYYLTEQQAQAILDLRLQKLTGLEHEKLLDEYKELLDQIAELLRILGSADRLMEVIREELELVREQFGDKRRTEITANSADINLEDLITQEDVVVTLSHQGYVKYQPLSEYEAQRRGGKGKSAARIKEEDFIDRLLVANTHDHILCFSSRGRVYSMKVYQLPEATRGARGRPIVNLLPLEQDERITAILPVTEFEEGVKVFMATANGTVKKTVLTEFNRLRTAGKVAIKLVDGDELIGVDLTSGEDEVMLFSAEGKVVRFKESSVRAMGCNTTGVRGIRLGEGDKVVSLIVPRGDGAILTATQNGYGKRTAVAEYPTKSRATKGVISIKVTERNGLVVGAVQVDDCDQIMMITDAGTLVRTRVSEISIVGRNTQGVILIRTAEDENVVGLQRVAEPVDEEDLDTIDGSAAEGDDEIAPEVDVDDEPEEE
Procedure: Method 1: Supercoiling Assay of E. Coli Gyrase
Enzymatic activity of E. coli DNA gyrase reconstituted from its purified subunits was assessed by monitoring the introduction of supercoils into the relaxed plasmid pHOT-1 (TopoGEN, TG2035-3). To form the functional gyrase A2B2 heterotetrameric enzyme, equal molar concentrations of the GyrA and GyrB subunits were combined at high protein concentration (500 nM) and incubated on ice for 1 hour prior to assay start in reaction buffer without ATP or the pHOT-1 plasmid. The reaction mixture (25 μl) contained 10 nM enzyme, 10 ng/μl pHOT-1, 1 mM ATP, 35 mM Tris-HCl pH 7.5, 24 mM KCl, 4 mM MgCl2, 2 mM DTT, 1.8 mM spermidine, 6.5% glycerol, and 100 μg/ml bovine serum albumin. The reaction was carried out at 37° C. for 90 minutes and terminated by the addition of 2.5 μl of 10× stop solution (0.9% SDS, 50% glycerol, 0.05% bromophenol blue). […] Gels were stained with ethidium bromide (0.5 μg/ml) for 30 minutes and destained in water for 20 minutes. All gels were analyzed using the BIO-RAD ChemiDocTm XRS+ with Image Lab 3.0 software. The 50% inhibition concentration (IC50) was determined as being the compound concentration at which the supercoiled band was reduced by 50% from the DMSO drug free control (Microsoft Excel 2010 IDBS XLfit, GraftPad Prism 6).

[3] = system: E. coli NB27177 (efflux deficient CGSC 11430, ΔtolC732::kan); experiment: microbe, parasite or virus in culture; assay type: cell-based; details: Escherichia coli, 20 h, read-out: Antibacterial activity (MIC) NB27177
[4] = system: P. aeruginosa NB52019 (wild-type PAO1); experiment: MIC, broth microdilution (CLSI); assay type: cell-based; details: Pseudomonas aeruginosa, read-out: Antibacterial activity (MIC) NB52019
[5] = system: E. coli ATCC 25922 (NB27001); experiment: MIC, broth microdilution (CLSI); assay type: cell-based; details: Escherichia coli, ATCC25922; E. coli ATCC 25922; 35° C., 20 hours; read-out: Antibacterial activity (MIC) NB27001
[6] = system: P. aeruginosa NB52023-CDK0006 (gyrA T83I, parC S87L); experiment: microbe, parasite or virus in culture; assay type: cell-based; details: Pseudomonas aeruginosa, 20 h, read-out: Antibacterial activity (MIC) NB52023-CDK0006
[7] = system: P. aeruginosa NB52023 (efflux deficient K1542, ΔmexX ΔmexB); experiment: microbe, parasite or virus in culture; assay type: cell-based; details: Pseudomonas aeruginosa, 20 h, read-out: Antibacterial activity (MIC) NB52023
[8] = system: S. aureus ATCC 29213 (NB01001); experiment: MIC, broth microdilution (CLSI); assay type: cell-based; details: Staphylococcus aureus, ATCC29213; S. aureus ATCC 29213; 35° C., 20 hours; read-out: Antibacterial activity (MIC) NB01001
[9] = P. aeruginosa wild-type PAO1, 35° C., 20 hours

Compound	MIC [1]	IC50 [2]	MIC [3]	MIC ([4]; PAO1, 20 h)	MIC [5]	MIC [6]	MIC [7]	MIC [8]	MIC [4, 9]
Cc1c(N2CC[C@@H]([C@H](C)N)C2)c(F)cc2cc(C(=O)O)c(=O)n(C3CC3)c12.Cl [Example 1.1, 7-((R)-3-((S)-1-aminoethyl)pyrrolidin-1-yl)-1-cyclopropyl-6-fluoro-8-methyl-2-oxo-1,2-dihydroquinoline-3-carboxylic acid hydrochloride salt]	2 µg/mL	0.68 µM	–	–	–	–	–	–	–
Cc1c(N2CC[C@@H]([C@H](C)N)C2)c(F)cc2cc(N)c(=O)n(C3CC3)c12 [Example 8, 3-amino-7-((R)-3-((S)-1-aminoethyl)pyrrolidin-1-yl)-1-cyclopropyl-6-fluoro-8-methylquinolin-2(1H)-one hydrochloride salt]	–	1.68 µM	–	–	–	–	–	–	–
Cc1c(N2CCC(C3(N)CC3)C2)c(F)cc2ccc(=O)n(C3CC3)c12 (centres unmarked) [Example 9.2, 7-(3-(1-Aminocyclopropyl)pyrrolidin-1-yl)-1-cyclopropyl-6-fluoro-8-methylquinolin-2(1H)-one]	0.125 µg/mL (≈ 0.366 µM)	1.19 µM	0.06 µg/mL (≈ 0.176 µM)	> 32 µg/mL	4 µg/mL (≈ 11.7 µM)	32 µg/mL (≈ 93.7 µM)	16 µg/mL (≈ 46.9 µM)	0.125 µg/mL (≈ 0.366 µM)	–
Cc1c(-c2ccc(N)nc2)c(F)cc2cc(O)c(=O)n(C3CC3)c12 [Example 11.2, 7-(6-aminopyridin-3-yl)-1-cyclopropyl-6-fluoro-3-hydroxy-8-methylquinolin-2(1H)-one]	2 µg/mL (≈ 6.15 µM)	8.07 µM	0.125 µg/mL (≈ 0.384 µM)	> 32 µg/mL	8 µg/mL (≈ 24.6 µM)	> 32 µg/mL	16 µg/mL (≈ 49.2 µM)	1 µg/mL (≈ 3.07 µM)	–
COc1c(N2CC[C@@H]([C@H](C)N)C2)c(F)cc2cc(C(=O)O)c(=O)n(C3CC3)c12 [Example 12, 7-((R)-3-((S)-1-aminoethyl)pyrrolidin-1-yl)-1-cyclopropyl-6-fluoro-8-methoxy-2-oxo-1,2-dihydroquinoline-3-carboxylic acid hydrochloride]	–	4.64 µM	–	–	–	–	–	–	–
Cc1c(N2CC[C@@H]([C@H](C)N)C2)c(F)cc2c(C(=O)O)cc(=O)n(C3CC3)c12 [Example 33, 7-((R)-3-((S)-1-aminoethyl)pyrrolidin-1-yl)-1-cyclopropyl-6-fluoro-8-methyl-2-oxo-1,2-dihydroquinoline-4-carboxylic acid]	> 32 µg/mL	16.3 µM	16 µg/mL (≈ 42.8 µM)	32 µg/mL (≈ 85.7 µM)	32 µg/mL (≈ 85.7 µM)	> 32 µg/mL	> 32 µg/mL	32 µg/mL (≈ 85.7 µM)	–
Cc1c(N2CC[C@@H]([C@H](C)N)C2)c(F)cc2c(-c3nnn[nH]3)cc(=O)n(C3CC3)c12 [Example 39, 7-((R)-3-((S)-1-aminoethyl)pyrrolidin-1-yl)-1-cyclopropyl-6-fluoro-8-methyl-4-(1H-tetrazol-5-yl)quinolin-2(1H)-one]	> 32 µg/mL	9.8 µM	32 µg/mL (≈ 80.5 µM)	32 µg/mL (≈ 80.5 µM)	32 µg/mL (≈ 80.5 µM)	> 32 µg/mL	> 32 µg/mL	32 µg/mL (≈ 80.5 µM)	–
Cc1c(N2CC[C@@H]([C@H](C)N)C2)c(F)cc2c(OCc3n[nH]c(=O)o3)cc(=O)n(C3CC3)c12 [Example 64, 5-(((7-((R)-3-((S)-1-aminoethyl)pyrrolidin-1-yl)-1-cyclopropyl-6-fluoro-8-methyl-2-oxo-1,2-dihydroquinolin-4-yl)oxy)methyl)-1,3,4-oxadiazol-2(3H)-one]	4 µg/mL (≈ 9.02 µM)	3.2 µM	4 µg/mL (≈ 9.02 µM)	> 32 µg/mL	32 µg/mL (≈ 72.2 µM)	> 32 µg/mL	> 32 µg/mL	8 µg/mL (≈ 18 µM)	–
Cc1c(N2CCC(F)(CN)C2)c(F)cc2cc(CN)c(=O)n(C3CC3)c12 (centres unmarked) [Example 93, 3-(aminomethyl)-7-(3-(aminomethyl)-3-fluoropyrrolidin-1-yl)-1-cyclopropyl-6-fluoro-8-methylquinolin-2(1H)-one formic acid salt]	16 µg/mL	–	1 µg/mL	8 µg/mL	8 µg/mL	8 µg/mL	4 µg/mL	2 µg/mL	–
Cc1c(N2CCC(CN)C2)c(F)c(C#N)c2ccc(=O)n(C3CC3)c12.O=C(O)C(F)(F)F (centres unmarked) [Example 99, 7-(3-(aminomethyl)pyrrolidin-1-yl)-1-cyclopropyl-6-fluoro-8-methyl-2-oxo-1,2-dihydroquinoline-5-carbonitrile TFA salt]	0.06 µg/mL	–	0.125 µg/mL	–	4 µg/mL	4 µg/mL	2 µg/mL	0.125 µg/mL	> 32 µg/mL
Cc1c(N2CCC(CN)C2)c(F)c(CN)c2ccc(=O)n(C3CC3)c12.O=C(O)C(F)(F)F (centres unmarked) [Example 100, 5-(aminomethyl)-7-(3-(aminomethyl)pyrrolidin-1-yl)-1-cyclopropyl-6-fluoro-8-methylquinolin-2(1H)-one TFA salt]	4 µg/mL	–	2 µg/mL	–	32 µg/mL	16 µg/mL	8 µg/mL	8 µg/mL	> 32 µg/mL
Cc1c(F)c(N2CCC(CN)C2)c(C)c2c1ccc(=O)n2C1CC1.O=C(O)C(F)(F)F (centres unmarked) [Example 101, 7-(3-(aminomethyl)pyrrolidin-1-yl)-1-cyclopropyl-6-fluoro-5,8-dimethylquinolin-2(1H)-one TFA salt]	0.125 µg/mL	–	0.125 µg/mL	–	8 µg/mL	16 µg/mL	8 µg/mL	0.5 µg/mL	> 32 µg/mL
Cc1c(N2CC[C@@H]([C@H](C)N)C2)c(F)c(F)c2ccc(=O)n(C3CC3)c12.O=C(O)C(F)(F)F [Example 106, 7-((R)-3-((S)-1-aminoethyl)pyrrolidin-1-yl)-1-cyclopropyl-5,6-difluoro-8-methyl quinolin-2(1H)-one TFA]	0.015 µg/mL	–	< 0.03 µg/mL	–	0.125 µg/mL	1 µg/mL	0.5 µg/mL	0.015 µg/mL	2 µg/mL
Cl.NCc1c(N2CCC(F)(CN)C2)c(F)cc2ccc(=O)n(C3CC3)c12 (centres unmarked) [Example 111, 8-(aminomethyl)-7-(3-(aminomethyl)-3-fluoropyrrolidin-1-yl)-1-cyclopropyl-6-fluoroquinolin-2(1H)-one HCl salt]	8 µg/mL	–	2 µg/mL	–	8 µg/mL	16 µg/mL	8 µg/mL	8 µg/mL	> 32 µg/mL
Cl.N#Cc1c(N2CC[C@H](N)C2)c(F)cc2ccc(=O)n(C3CC3)c12 [Example 113, (S)-7-(3-aminopyrrolidin-1-yl)-1-cyclopropyl-6-fluoro-2-oxo-1,2-dihydroquinoline-8-carbonitrile HCl salt]	16 µg/mL	–	0.125 µg/mL	–	0.5 µg/mL	4 µg/mL	2 µg/mL	8 µg/mL	16 µg/mL
N#Cc1c(N2CC[C@H](N)C2)c(F)cc2c(CN)cc(=O)n(C3CC3)c12 [Example 114, (S)-4-(aminomethyl)-7-(3-aminopyrrolidin-1-yl)-1-cyclopropyl-6-fluoro-2-oxo-1,2-dihydroquinoline-8-carbonitrile]	32 µg/mL (≈ 93.7 µM)	–	0.5 µg/mL (≈ 1.46 µM)	16 µg/mL (≈ 46.9 µM)	2 µg/mL (≈ 5.86 µM)	4 µg/mL (≈ 11.7 µM)	2 µg/mL (≈ 5.86 µM)	16 µg/mL (≈ 46.9 µM)	–
Cc1c(N2CCC(F)(CN)C2)c(F)c(F)c2c(CN)cc(=O)n(C3CCC3)c12 (centres unmarked) [Example 115, 4-(aminomethyl)-7-(3-(aminomethyl)-3-fluoropyrrolidin-1-yl)-1-cyclobutyl-5,6-difluoro-8-methylquinolin-2(1H)-one TFA salt]	4 µg/mL	–	0.5 µg/mL	> 32 µg/mL	1 µg/mL	16 µg/mL	8 µg/mL	2 µg/mL	–
